Assays:
[1] = test system: glycosaminoglycan production; experiment: Synthesis of glycosaminoglycans after allantoin administration; type: cell-based
[2] = test system: pro-collagen synthesis in Hs27/HEK001 cells; experiment: Pro-Collagen Synthesis In Vitro Assay (Procollagen ELISA); type: cell-based, human
Description: Hs27/HEK001 cells are plated at 10,000/40,000 cells per well of 96-well plate. Hs27 cells are normal human fibroblasts derived from a foreskin source. […] cells are a human epidermal cell line that originally was derived from human scalp keratinocytes. […] Hs27/HEK001 cells are allowed to attach overnight. Following overnight incubation, media is removed from the wells and replaced with 100 μl fresh media.
After overnight incubation, the test samples are added to wells in triplicate to final concentrations of 1, 10, and 100 μg/ml. The cells with test sample added are incubated overnight and supernatants are collected for analysis using a Procollagen ELISA kit from Takara Bio, Inc. (Japan). The EC50 concentration for each test sample is monitored and recorded to evaluate variability over time.
Controls for this assay include administration of 0.1, 1, and 10 μg/ml ascorbic acid and all-trans-retinoic acid to H27/HEK cells. Untreated cells also are used as a negative control. It generally is known that ascorbic acid increases pro-collagen synthesis by approximately 15-20% compared to untreated control.

elastin = experiment: Elastin synthesis after allantoin administration; type: cell-based
[3] = test system: pro-collagen synthesis in Hs27/HEK001 cells; settings: generally known value for the control substance; cited from earlier work

Compound | Glycosaminoglycan synthesis, percent of untreated control ([1]; allantoin at 100 μg/ml) [%] | average increase in glycosaminoglycan production ([1]; at 100 μg/ml) [%] | Pro-collagen synthesis, percent of untreated control ([2]; allantoin at 100 μg/ml, average of triplicate wells) [%] | average increase in pro-collagen synthesis ([2]; at 100 μg/ml) [%] | dose dependence of pro-collagen synthesis ([2]; final concentrations of 1, 10, and 100 μg/ml) | Elastin synthesis, percent of untreated control (elastin; allantoin at 100 μg/ml) [%] | average increase in elastin (elastin; at 100 μg/ml) [%] | increase in pro-collagen synthesis compared to untreated control [3]
NC(=O)NC1NC(=O)NC1=O (centres unmarked) [Allantoin, 2,5-dioxy-4-imidazolidinyl urea] | 111.2 | 11.2 | 124.1 | 24.1 | dose-dependent increase in pro-collagen synthesis | 106.2 | 6.2 | –
O=C1O[C@H]([C@@H](O)CO)C(O)=C1O [ascorbic acid] | – | – | – | – | – | – | – | 15-20%

— patent US20080108681A1 (Access Business Group International LLC, priority 2006, published 2008)
